From US10494332B2, “Protein tyrosine phosphatases or SHP2 inhibitors and uses thereof” (Indiana University Research and Technology Corporation, priority 2015, dated 2019)
Values joined by “and” are separate entries in the source; they are usually repeats but may differ in a detail not shown here. Equal entries are not always repeated. Where two headings read alike, the source gives them in different places.

Tests used:
[1] = target: LAR (Homo sapiens, UniProt P10586); test: PTP inhibition assay (pNPP); assay type: biochemical
Chain of LAR (P10586 30-1907): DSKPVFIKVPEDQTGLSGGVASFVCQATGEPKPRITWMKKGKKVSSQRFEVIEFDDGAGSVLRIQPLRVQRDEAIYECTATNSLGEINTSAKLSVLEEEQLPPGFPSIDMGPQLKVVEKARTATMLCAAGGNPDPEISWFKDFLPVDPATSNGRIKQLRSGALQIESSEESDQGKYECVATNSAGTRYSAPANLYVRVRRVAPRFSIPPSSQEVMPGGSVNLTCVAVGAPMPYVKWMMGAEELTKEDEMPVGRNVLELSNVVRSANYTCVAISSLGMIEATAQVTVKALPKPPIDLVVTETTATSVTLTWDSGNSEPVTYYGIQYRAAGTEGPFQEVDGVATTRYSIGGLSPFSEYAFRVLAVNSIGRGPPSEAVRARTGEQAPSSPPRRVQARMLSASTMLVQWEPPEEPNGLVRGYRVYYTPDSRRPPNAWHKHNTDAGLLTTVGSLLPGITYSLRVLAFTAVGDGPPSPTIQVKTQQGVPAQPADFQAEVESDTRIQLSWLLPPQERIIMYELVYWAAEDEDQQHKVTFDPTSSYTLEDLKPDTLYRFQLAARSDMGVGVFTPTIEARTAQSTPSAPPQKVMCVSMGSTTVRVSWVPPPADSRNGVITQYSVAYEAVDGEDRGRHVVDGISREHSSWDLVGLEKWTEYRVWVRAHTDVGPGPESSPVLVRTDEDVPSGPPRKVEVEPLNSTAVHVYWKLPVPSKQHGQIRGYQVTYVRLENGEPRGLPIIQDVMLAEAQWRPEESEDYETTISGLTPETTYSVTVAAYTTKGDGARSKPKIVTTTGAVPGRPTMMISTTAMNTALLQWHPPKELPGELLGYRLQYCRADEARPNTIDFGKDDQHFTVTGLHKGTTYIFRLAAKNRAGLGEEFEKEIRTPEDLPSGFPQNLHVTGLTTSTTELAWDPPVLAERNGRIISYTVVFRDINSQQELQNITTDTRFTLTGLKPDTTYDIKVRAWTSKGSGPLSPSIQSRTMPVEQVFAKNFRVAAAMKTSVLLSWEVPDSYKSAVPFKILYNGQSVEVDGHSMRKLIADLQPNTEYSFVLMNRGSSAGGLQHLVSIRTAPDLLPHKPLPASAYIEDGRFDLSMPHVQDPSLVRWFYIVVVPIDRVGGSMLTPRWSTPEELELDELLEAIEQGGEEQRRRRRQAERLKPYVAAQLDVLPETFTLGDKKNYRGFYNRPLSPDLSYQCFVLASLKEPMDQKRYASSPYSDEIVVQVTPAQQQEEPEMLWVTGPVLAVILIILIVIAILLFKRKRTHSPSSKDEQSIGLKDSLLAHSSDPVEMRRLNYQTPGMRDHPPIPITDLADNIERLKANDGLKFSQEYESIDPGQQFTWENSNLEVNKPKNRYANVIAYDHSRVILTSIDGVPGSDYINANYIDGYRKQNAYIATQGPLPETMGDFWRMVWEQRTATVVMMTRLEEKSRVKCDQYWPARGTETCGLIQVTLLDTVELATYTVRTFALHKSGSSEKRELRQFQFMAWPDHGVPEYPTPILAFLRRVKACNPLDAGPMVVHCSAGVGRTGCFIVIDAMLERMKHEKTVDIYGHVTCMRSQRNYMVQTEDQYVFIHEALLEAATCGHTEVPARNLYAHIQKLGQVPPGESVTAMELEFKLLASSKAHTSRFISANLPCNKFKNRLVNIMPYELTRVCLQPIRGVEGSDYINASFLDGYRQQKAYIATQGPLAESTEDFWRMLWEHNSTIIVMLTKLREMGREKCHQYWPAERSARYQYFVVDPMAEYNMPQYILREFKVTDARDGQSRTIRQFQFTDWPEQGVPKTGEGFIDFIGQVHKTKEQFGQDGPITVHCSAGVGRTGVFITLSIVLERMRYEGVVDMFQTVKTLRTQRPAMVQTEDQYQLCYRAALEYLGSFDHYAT

[2] = target: T1, Laforin (Homo sapiens, UniProt O95278); test: PTP inhibition assay (pNPP); assay type: biochemical; conditions: for IC50: pNPP at Km, pH 7.0, 25° C.
T1 sequence (O95278 1-331): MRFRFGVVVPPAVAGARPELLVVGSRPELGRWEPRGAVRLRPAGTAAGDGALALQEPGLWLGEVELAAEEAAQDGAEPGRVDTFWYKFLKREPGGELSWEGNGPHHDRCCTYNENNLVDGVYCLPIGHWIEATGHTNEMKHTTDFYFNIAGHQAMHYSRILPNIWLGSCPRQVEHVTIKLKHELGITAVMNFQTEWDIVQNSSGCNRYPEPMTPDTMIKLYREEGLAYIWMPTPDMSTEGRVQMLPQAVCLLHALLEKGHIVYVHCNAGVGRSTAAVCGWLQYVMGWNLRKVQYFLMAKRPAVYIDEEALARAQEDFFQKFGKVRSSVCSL

[3] = target: mPTPA (Mycobacterium tuberculosis, UniProt P9WIA1); test: biochemical
Chain of mPTPA (P9WIA1 whole entry): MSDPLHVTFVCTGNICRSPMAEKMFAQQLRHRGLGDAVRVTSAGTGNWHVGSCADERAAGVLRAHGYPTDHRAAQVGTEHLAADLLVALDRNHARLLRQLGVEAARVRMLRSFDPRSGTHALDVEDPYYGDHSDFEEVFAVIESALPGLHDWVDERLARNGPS

[4] = target: T2, LMWPTP (Homo sapiens, UniProt P24666); test: PTP inhibition assay (pNPP); assay type: biochemical
T2 sequence (P24666 1-158): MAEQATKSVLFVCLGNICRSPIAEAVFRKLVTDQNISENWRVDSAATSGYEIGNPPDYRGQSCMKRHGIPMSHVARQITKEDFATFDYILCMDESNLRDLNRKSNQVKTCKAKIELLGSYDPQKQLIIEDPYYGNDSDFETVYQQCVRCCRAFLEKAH

[5] = target: YopH (Yersinia enterocolitica, UniProt P15273); test: biochemical
Chain of YopH (P15273 whole entry, looked up): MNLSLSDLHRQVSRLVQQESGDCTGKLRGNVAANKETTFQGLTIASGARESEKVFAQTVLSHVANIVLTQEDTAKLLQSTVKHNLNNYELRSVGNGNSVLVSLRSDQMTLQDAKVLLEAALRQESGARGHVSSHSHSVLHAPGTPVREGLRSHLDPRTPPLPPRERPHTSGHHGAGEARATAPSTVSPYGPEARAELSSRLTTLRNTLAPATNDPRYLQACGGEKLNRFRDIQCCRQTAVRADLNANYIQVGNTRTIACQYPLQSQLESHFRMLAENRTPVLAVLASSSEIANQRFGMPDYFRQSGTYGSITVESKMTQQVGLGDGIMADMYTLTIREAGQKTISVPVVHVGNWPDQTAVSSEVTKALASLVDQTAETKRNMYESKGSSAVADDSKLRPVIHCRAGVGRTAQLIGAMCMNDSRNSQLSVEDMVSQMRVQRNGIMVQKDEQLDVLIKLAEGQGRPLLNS

[6] = target: T3, CDC14A (Homo sapiens, UniProt Q9UNH5); test: PTP inhibition assay (pNPP); assay type: biochemical
T3 sequence (Q9UNH5 1-594): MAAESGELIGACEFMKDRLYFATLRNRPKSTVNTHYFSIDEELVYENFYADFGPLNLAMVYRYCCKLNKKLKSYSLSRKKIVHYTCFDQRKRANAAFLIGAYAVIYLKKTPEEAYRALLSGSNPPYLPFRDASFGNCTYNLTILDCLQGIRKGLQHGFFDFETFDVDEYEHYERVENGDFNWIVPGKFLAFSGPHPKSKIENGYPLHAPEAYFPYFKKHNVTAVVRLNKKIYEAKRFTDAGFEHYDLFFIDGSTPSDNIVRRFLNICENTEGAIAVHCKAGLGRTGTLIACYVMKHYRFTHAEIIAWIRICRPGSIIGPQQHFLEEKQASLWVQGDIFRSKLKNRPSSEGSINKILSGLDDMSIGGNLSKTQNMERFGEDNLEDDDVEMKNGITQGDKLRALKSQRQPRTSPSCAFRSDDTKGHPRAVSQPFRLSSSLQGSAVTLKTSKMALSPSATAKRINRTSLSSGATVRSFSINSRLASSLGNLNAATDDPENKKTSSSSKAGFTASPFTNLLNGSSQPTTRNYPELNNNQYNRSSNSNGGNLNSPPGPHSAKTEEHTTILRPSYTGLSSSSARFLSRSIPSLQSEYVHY

[7] = target: T4, HePTP (Homo sapiens, UniProt P35236); test: PTP inhibition assay (pNPP); assay type: biochemical; conditions: pNPP at Km, pH 7.0, 25° C.
T4 sequence (P35236 1-360): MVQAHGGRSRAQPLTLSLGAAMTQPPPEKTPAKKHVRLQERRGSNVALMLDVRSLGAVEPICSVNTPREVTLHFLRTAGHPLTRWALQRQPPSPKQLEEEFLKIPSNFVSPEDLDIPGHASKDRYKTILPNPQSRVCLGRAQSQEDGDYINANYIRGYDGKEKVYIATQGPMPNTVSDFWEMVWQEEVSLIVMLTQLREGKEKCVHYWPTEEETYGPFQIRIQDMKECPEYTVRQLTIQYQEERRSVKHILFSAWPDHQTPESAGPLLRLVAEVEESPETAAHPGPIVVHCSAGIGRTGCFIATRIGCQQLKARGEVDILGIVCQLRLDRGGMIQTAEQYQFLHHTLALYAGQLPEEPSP

[8] = target: TbPTP1 (Trypanosoma brucei brucei, UniProt Q38AT7); test: PTP inhibition assay (pNPP); assay type: biochemical; conditions: pH 7.0, 25° C.
Chain of TbPTP1 (Q38AT7 entry or part of it): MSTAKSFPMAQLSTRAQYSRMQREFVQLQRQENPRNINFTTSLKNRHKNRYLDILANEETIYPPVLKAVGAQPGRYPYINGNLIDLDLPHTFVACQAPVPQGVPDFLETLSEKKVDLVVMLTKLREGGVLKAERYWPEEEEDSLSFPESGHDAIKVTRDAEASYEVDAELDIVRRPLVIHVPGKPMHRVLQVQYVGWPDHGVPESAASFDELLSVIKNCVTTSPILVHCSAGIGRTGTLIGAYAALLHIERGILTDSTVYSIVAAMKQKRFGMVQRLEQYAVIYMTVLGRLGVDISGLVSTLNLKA

[9] = target: T5, PEST (Homo sapiens, UniProt Q05209); test: PTP inhibition assay (pNPP); assay type: biochemical
T5 sequence (Q05209 1-780): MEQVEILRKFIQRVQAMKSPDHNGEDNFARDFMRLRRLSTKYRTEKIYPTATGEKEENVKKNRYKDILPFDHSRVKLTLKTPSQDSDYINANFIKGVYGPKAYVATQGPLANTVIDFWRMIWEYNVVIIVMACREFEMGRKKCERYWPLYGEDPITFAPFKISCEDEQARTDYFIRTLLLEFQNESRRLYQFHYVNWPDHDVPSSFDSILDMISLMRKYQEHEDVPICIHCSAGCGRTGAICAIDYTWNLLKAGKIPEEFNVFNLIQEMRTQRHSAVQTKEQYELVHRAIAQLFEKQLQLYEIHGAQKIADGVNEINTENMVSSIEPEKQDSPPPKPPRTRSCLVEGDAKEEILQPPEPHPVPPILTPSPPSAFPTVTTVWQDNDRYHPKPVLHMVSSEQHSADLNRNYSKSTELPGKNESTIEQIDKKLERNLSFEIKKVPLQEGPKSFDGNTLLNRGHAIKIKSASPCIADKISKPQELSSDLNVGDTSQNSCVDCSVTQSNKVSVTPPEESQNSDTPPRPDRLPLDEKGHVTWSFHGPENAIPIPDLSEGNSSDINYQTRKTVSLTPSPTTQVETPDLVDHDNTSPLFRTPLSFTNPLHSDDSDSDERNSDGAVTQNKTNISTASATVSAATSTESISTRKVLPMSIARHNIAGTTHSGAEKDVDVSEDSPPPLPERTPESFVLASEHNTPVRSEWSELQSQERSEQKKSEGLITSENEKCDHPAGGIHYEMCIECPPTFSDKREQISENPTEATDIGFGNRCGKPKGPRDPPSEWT

[10] = pNPP at Km, read-out: IC50 TbPTP1
[11] = pNPP at Km, pH 7.0, 25° C., read-out: IC50 PEST

| Structure (SMILES) | IC50 [1] [µM] | IC50 ([2]; IC50 Laforin) [µM] | Ki [3] [µM] | Mode of mPTPA inhibition [3] | IC50 ([3]; Biochemical potency against target (Ic50, nM) mPTPA) [nM] | IC50 ([3]; IC50 mPTPA) | IC50 ([4]; pNPP at Km, pH 7.0, 25° C.) | IC50 [5] [µM] | IC50 [6] [µM] | IC50 [7] | IC50 [8, 10] | IC50 [9, 11] | IC50 ([2]; read-out: IC50 Laforin) | IC50 ([9]; IC50 PEST) [µM] | IC50 ([9]; pH 7, read-out: IC50 PEST) [µM] | IC50 ([4]; pH 7) [µM] | IC50 ([8]; IC50 TbPTP1, pNPP at Km) [µM] | Inhibition of Laforin at 100 μM ([2]; 100 μM) |
| --- | --- | --- | --- | --- | --- | --- | --- | --- | --- | --- | --- | --- | --- | --- | --- | --- | --- | --- |
| Cc1c(Br)cc(NC(=O)CS(=O)(=O)O)cc1Br | > 100 | > 100 | 0.056 ± 0.002 | reversible and competitive inhibitor | 160 | 160 nM | 4.2 µM | > 100 | > 100 | > 100 µM | > 100 µM |  |  |  |  |  |  |  |
| O=C(CS(=O)(=O)O)Nc1ccc2nc(C(F)(F)F)[nH]c2c1 | > 100 |  |  |  |  | 650 nM | 1.86 µM | > 100 | > 100 | > 100 µM | > 100 µM | > 100 µM | > 100 µM |  |  |  |  |  |
| O=C(CS(=O)(=O)O)Nc1cnc2ccccc2c1 | > 100 |  |  |  |  | 3000 nM | 12 µM | > 100 | > 100 | > 100 µM | > 100 µM | > 100 µM | > 100 µM |  |  |  |  |  |
| O=C(NCCNC(=O)C(c1ccccc1)S(=O)(=O)O)c1cccc(C(=O)c2ccccc2)c1 (stereo not drawn) [Compound L319-02-A60] |  |  |  |  |  |  | > 200 µM |  |  | > 200 µM | > 200 µM | > 200 µM | 9 µM |  |  |  |  |  |
| O=C(NCc1ccc(NC(=O)C(c2ccccc2)S(=O)(=O)O)cc1)c1ccccc1-c1ccc(C(F)(F)F)cc1 (stereo not drawn) [Compound L319-05-A64] |  |  |  |  |  |  | 29 µM |  |  | 150 µM | 93 µM | 160 µM | 0.8 µM |  |  |  |  |  |
| CCCCc1ccc(NC(=O)C(=O)Nc2ccccc2NC(=O)C(c2ccccc2)S(=O)(=O)O)cc1 (stereo not drawn) [Compound L319-21-M06] |  |  |  |  |  |  | > 50 µM |  |  | > 50 µM | > 50 µM | > 50 µM | 0.14 µM |  |  |  |  |  |
| O=C(Nc1cccc(OCc2ccccc2)c1)C(=O)Nc1ccccc1NC(=O)C(c1ccccc1)S(=O)(=O)O (stereo not drawn) [Compound L319-21-M52] |  |  |  |  |  |  | > 50 µM |  |  | > 50 µM | > 50 µM | > 50 µM | 0.15 µM |  |  |  |  |  |
| Cc1c(Br)cc(NC(=O)C(c2ccccc2)S(=O)(=O)O)cc1Br (stereo not drawn) [Compound L319M34] |  |  |  |  |  | 196 nM | 4.5 µM | > 200 |  | > 100 µM |  |  |  | 42.3 | 72.3 | 5.3 | > 200 |  |
| O=C(Nc1ccc(OCc2ccccc2)c(Cl)c1)C(c1ccccc1)S(=O)(=O)O (stereo not drawn) [Compound L319M50] |  |  |  |  |  |  |  |  |  | > 100 µM | > 100 µM | 69.9 µM | 2.06 µM |  |  | 12.1 |  |  |
| O=C(Nc1cccc(OCc2ccccc2)c1)C(c1ccccc1)S(=O)(=O)O (stereo not drawn) [Compound L319M52] | > 200 |  |  |  |  | 560 nM | 72.3 µM | > 200 | > 200 | 130 µM and > 100 µM | 118 µM and > 100 µM | 77 µM and 77.4 µM | 5.08 µM |  |  |  |  |  |
| O=C(Nc1ccc2nc(C(F)(F)F)[nH]c2c1)C(c1ccccc1)S(=O)(=O)O (stereo not drawn) [Compound L319M54] | > 200 |  |  |  |  | 265 nM and 270 nM | 7.96 µM and 5 µM | > 200 | > 200 | > 200 µM | > 200 µM | > 200 µM | 4.25 µM |  |  | 5.6 |  |  |
| O=C(Nc1ccc(N2CCOCC2)cc1)C(c1ccccc1)S(=O)(=O)O (stereo not drawn) [Compound L319M68] | > 200 |  | 0.13 |  |  | 250 nM | 20 µM | > 200 | > 200 | > 200 µM | > 200 µM | > 200 µM | 7.47 µM and 7.5 µM |  |  | 8.1 |  |  |
| O=C(Nc1ccc(-c2ccccc2)cc1)C(c1ccccc1)S(=O)(=O)O (stereo not drawn) [Compound L319N08] |  |  |  |  |  |  | 28.9 µM |  |  | 78 µM | > 100 µM |  |  | 59.7 |  |  |  |  |
| O=C(CS(=O)(=O)O)Nc1nc2ccc([N+](=O)[O-])cc2s1 [Compound L335N15-07] | > 100 |  |  |  |  |  | 0.3 µM | > 100 | > 100 | > 100 µM | > 100 µM | > 100 µM | > 100 µM |  |  |  |  | no detectable inhibition |
